≈ marks a conversion by molar mass, not a printed value. Where two headings read alike, the source gives them in different places.

One series relates to HUVEC. As to the kind of experiment: Metabolic activity assessment (CellTiter 96 Aqueous One), HUVEC. Format: cell-based. As to conditions: Homo sapiens, 72 h treatment, mean ± SD. On the procedure: (§1) Supplementary Table 7. Results of cytotoxicity studies.
(§2) Metabolic activity assessment
(§3) Cells of the HepG2 line ( ATCC® HB-8065™) and HUVEC ( ATCC® CRL-1730™) were cultured in Dulbecco’s Modified Eagle Medium (DMEM; Sigma-Aldrich, St. Louis, MO, USA) supplemented with 10% heat -deactivated FBS (Gibco, Grand Island/NY, USA), 2 mM L -glutamine, 100 U/mL penicillin, 100 µg/mL streptomycin (all from Sigma -Aldrich) in a humidified chamber at 37 °C and 5% CO2. The experiments were carried out on passages 7 - 9 for both cell lines. The tested compounds were dissolved in DMSO and further diluted in culture medium to a desired final concentration. […]
(§4) 10^4 cells/mL (100 µL/well) and after attachm ent treated with seven different concentration of the selected compounds or corresponding vehicle as control. The metabolic activity was assessed after 72 h treatment using the CellTiter 96 Aqueous One Solution Cell Proliferation Assay (Promega, Madison/WI, USA), in accordance with the manufacturer’s instructions .7 The absorbance was measured at 492 nm on an automated microplate reader BioTek Synergy HT (BioTek Instruments, Inc.). Data are presented as IC 50 value (mean ± SD) from two independent experiments , each conducted in duplicate or triplicate. IC 50 values were calculated by a non -linear regression model using Graph Pad Prism 7 software. […]

The subject of the next series is HepG2. Put plainly: Metabolic activity assessment (CellTiter 96 Aqueous One), HepG2. It counts as cell-based. The settings on record: Homo sapiens, 72 h treatment, mean ± SD. On the procedure:
as §1, §2, §3, §4

The target of series [1] is T1, S. aureus DNA gyrase (Staphylococcus aureus, UniProt P20831).
T1 construct: purchased Inspiralis (Norwich, UK)
As to the kind of experiment: Gyrase Supercoiling High Throughput Plate Assay (fluorescence), S. aureus. As to conditions: fluorescence-based high throughput plate assay. Format: biochemical. The protocol:
A Gyrase Supercoiling High Throughput Plate Assay kit, purchased from Inspiralis (Norwich. UK), was used to determine IC50 values of compounds on S. aureus and E. coli gyrase. […] Biotinylated oligonucleotide in wash buffer was immobilized onto the wells, and the excess oligonucleotide was washed off with wash buffer and ultrapure water. […] The reactions were stopped by adding the TF buffer (50 mM NaOAc (pH 4.7), 50 mM NaCl, and 50 mM MgCl2) to allow the triplex formation (biotin–oligonucleotide–plasmid) for an additional 30 min. Afterward, the unbound plasmid was washed off using TF buffer, and the solution of Promega Diamond dye in T10 buffer (10 mM Tris-HCl (pH 8.0), 1 mM EDTA) was added. […] Preliminary screening was performed at four inhibitor concentrations of 100, 10, 1, and 0.1 μM. […] IC50 was calculated using nonlinear regression-based fitting of inhibition curves using log [inhibitor] versus response-variable slope (four parameters)—symmetrical equation in the GraphPad Prism 6.0 software (GraphPad Software, La Jolla, CA, USA, www.graphpad.com). IC50 values represent the mean of two to four independent measurements.
Target sequence in this assay (P20831 whole entry): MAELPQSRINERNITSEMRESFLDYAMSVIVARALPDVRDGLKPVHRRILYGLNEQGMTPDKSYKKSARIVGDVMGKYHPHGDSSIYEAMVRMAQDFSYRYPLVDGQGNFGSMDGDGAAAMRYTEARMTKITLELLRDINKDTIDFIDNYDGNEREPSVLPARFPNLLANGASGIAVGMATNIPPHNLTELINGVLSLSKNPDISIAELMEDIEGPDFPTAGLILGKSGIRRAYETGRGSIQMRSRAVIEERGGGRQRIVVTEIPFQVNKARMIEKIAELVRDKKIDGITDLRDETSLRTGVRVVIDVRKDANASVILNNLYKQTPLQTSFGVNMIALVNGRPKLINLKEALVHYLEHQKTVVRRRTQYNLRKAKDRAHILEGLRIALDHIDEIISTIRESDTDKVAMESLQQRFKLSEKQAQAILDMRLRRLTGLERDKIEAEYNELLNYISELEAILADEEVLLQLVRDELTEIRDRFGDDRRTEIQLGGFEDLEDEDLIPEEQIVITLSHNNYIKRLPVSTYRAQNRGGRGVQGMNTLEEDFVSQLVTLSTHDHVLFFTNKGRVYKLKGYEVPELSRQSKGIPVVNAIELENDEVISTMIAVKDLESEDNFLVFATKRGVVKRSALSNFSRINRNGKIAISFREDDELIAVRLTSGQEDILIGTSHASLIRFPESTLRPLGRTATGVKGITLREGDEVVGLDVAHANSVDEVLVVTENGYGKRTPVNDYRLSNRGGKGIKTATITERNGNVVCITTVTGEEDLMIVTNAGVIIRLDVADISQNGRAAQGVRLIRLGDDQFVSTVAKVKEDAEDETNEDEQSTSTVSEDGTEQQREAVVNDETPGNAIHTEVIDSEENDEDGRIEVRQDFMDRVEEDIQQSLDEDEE
Target sequence in this assay (P0A0K8 whole entry partner): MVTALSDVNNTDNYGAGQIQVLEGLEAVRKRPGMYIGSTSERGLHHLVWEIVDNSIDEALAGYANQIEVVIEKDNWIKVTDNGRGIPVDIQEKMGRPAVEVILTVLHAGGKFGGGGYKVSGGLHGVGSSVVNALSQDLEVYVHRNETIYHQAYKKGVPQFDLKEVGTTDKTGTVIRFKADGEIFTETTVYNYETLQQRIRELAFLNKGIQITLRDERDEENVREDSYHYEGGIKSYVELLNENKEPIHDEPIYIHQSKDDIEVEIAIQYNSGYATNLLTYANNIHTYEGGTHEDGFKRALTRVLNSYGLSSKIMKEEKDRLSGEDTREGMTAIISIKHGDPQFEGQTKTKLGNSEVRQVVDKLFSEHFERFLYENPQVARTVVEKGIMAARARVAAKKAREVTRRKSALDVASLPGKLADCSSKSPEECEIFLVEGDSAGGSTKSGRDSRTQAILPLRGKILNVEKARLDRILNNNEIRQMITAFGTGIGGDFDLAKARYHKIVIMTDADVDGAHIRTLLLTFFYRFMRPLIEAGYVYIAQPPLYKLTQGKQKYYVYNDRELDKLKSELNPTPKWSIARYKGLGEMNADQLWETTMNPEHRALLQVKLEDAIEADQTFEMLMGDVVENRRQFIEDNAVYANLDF

The next series addresses T2, hERG potassium channel (Homo sapiens, UniProt Q12809).
T2 construct: purchased Invitrogen (kit); assay run at TCG Lifesciences Pvt; Ltd. India
Put plainly: FP-based hERG binding assay (Invitrogen kit). On the procedure: Supplementary Table 7. Results of cytotoxicity studies. […]
Cardiovascular hERG inhibition
Cardiovascular safety profile was entirely outsourced. hERG screening was performed at TCG
Lifesciences Pvt. Ltd. India with FP -based hERG binding assay (Invitrogen kit).
(In general: Block of hERG is tested as a sign of cardiac risk.)

Series [2] addresses T1, S. aureus DNA gyrase. As to the kind of experiment: Gel-based S. aureus Gyrase Supercoiling assay (Inspiralis). It counts as biochemical. On the procedure:
gyrase supercoiling assays
In all experiments, the activity of the enzyme was determined prior to the testing of the compounds and 1 U defined as the amount of enzyme required to fully supercoil the substrate. This amount of enzyme was used in all subsequent assays. The final DMSO concentration in all the reactions was 1% (v/v). Compounds were serially diluted in DMSO and added to the reaction before the addition of the […]
Staphylococcus aureus gyrase supercoiling assay
1 U of DNA gyrase was incubated with 0.5 μg of relaxed pBR322 DNA in a 30 μl reaction at 37 °C for 30 min under the following conditions: 40 mM HEPES·KOH (pH 7.6), 10 mM magnesium acetate, 10 mM DTT, 2 mM ATP, 500 mM potassium glutamate and 0.05 mg/ml BSA. Each reaction was stopped by the addition of 30 μl chloroform/iso-amyl alcohol (24:1) and 20 μl Stop Dye (40% sucrose, 100 mM Tris.HCl ( pH 7.5), 10 mM EDTA, 0.5 μg/ml bromophenol blue), before being loaded on a 1.0% TAE (Tris.acetate […], EDTA […]). Gels run at 70V for 3 hours.
Data acquisition and analysis
Bands were visualised by ethidium staining for 10 min, destained for 10 min in water and bands were analysed by gel documentation equipment (Syngene, Cambridge, UK) and quantitated using Syngene Gene Tools software. Raw gel data (fluorescent band volumes) collected from Syngene, GeneTools gel analysis software were converted to a % of the 100% control (the fully supercoiled or relaxed […]
global curve fit non-linear regression tool was used to calculate IC50 data using the following equation:
Equation: Exponential Decay, Single, 2 Parameter f = ae−bx
(1 picture or pasted object on this page, not shown here)
Target sequence in this assay (P20831 whole entry): as the sequence (P20831 whole entry) above
Target sequence in this assay (P0A0K8 whole entry, further chain): as the sequence (P0A0K8 whole entry partner) above

The test system of a further series is S. aureus (ATCC 29213). As to the kind of experiment: Broth microdilution MIC, S. aureus. Format: cell-based. The settings on record: Staphylococcus aureus, ATCC29213, 20 h, 37 °C. On the procedure:
(§5) Antimicrobial assays were performed by the broth microdilution method in 96-well plate format according to the Clinical and Laboratory Standards Institute guidelines[46] and European Committee on Antimicrobial Susceptibility Testing recommendations. First, bacterial suspensions of specific bacterial strains was prepared to obtain density equivalent to 0.5 McFarland turbidity standard, followed by dilution with cation-adjusted Mueller Hinton broth with TES (Thermo Fisher Scientific), to obtain a final inoculum of 10^5 colony-forming units/mL. Compounds were dissolved in DMSO and twofold dilutions were prepared, then inoculum was added and the mixture was incubated for 20 h at 37 °C. After incubation, the MIC values were read off by visual assessment as the lowest dilution of compound showing no turbidity. The MICs were determined against S. aureus (ATCC 29213), MRSA (NCTC12493), E. coli (ATCC 25922), E. coli D22, and E. coli N43 bacterial strains. Tetracycline was used as a positive control on every assay plate, displaying MICs of 0.5 and 1 μg/mL for S. aureus and E. coli, respectively.
A general note: In broth dilution the organism is exposed to a series of concentrations in liquid medium.

The next series deals with MRSA (NCTC12493). Put plainly: Broth microdilution MIC, MRSA. Format: cell-based, S. aureus. As to conditions: Staphylococcus aureus, 20 h, 37 °C. On the procedure: as §5
Another series deals with E. coli (ATCC 25922). Put plainly: Broth microdilution MIC, E. coli. It counts as cell-based. The settings on record: Escherichia coli, ATCC25922, 20 h, 37 °C. The protocol: as §5

T2 sequence (Q12809 whole entry): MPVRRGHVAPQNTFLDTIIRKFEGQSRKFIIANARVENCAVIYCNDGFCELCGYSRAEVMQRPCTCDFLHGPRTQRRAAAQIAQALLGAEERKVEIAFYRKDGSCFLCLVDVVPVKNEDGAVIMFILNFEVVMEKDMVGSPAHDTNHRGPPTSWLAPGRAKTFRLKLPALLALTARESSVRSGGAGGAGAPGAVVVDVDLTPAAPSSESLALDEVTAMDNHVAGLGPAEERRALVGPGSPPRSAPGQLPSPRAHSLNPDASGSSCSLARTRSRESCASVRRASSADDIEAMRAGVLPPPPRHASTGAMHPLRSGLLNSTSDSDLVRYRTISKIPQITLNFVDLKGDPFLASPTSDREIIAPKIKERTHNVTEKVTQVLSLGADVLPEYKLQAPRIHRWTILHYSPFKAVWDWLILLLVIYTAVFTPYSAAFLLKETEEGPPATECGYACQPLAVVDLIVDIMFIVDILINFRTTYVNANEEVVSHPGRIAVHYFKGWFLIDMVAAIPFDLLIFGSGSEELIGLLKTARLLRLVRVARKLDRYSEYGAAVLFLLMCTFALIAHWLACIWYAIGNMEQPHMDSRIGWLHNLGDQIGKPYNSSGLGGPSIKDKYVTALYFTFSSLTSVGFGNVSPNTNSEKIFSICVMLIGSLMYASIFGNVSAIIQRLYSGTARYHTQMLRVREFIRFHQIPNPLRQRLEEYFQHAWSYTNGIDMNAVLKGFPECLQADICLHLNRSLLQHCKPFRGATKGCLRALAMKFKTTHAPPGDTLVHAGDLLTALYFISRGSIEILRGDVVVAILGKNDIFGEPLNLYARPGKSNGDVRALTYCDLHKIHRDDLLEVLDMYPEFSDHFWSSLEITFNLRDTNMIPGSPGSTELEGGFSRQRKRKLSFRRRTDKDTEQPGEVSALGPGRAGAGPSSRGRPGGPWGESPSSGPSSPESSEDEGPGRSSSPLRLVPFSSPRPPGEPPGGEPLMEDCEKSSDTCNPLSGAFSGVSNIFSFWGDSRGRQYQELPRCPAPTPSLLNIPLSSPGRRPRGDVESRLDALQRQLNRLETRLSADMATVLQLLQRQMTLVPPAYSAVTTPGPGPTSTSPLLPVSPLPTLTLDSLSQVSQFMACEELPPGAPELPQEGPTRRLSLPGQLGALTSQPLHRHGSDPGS

In general, IC50 refers to the concentration that inhibits the measured activity by half. Turning to `COc1ccc2nccc(CCN3CCC(NCc4ccccc4)CC3)c2n1` [Compound 2], the IC50 in the series with HUVEC stood at 54.1 ± 3.45 µM; with HepG2, 17.7 ± 2.16 µM; at S. aureus DNA gyrase [1], 1020 nM; at hERG potassium channel, 1050 nM.

In the case of `COc1ccc2nccc(CCN3CCC(NCc4ccc(F)cc4)CC3)c2n1` [Compound 3], the IC50 with HUVEC is > 50 µM; in the series on HepG2 it was 12.7 ± 0.21 µM; on S. aureus DNA gyrase [1] it was 550 nM; at hERG potassium channel, 590 nM.

Consider `COc1ccc2nccc(CCN3CCC(NCc4ccc(Cl)cc4)CC3)c2n1` [Compound 4], for which the IC50 in the series with HUVEC is 27 ± 0.38 µM; in the series on HepG2 it was 10.16 ± 0.1 µM; on hERG potassium channel, 270 nM.

Turning to `COc1ccc2nccc(CCN3CCC(NCc4ccc(Br)cc4)CC3)c2n1` [Compound 5], the half-inhibitory concentration (IC50) at S. aureus DNA gyrase [2] (IC50 S. aureus DNA gyrase supercoiling, gel-based assay) amounted to 7 nM; against S. aureus DNA gyrase [2] (S. aureus gyrase supercoiling IC50 Assay 1, gel-based assay, assay 1) it was 7 nM; against S. aureus DNA gyrase [2] (S. aureus gyrase supercoiling IC50 Assay 2, gel-based assay, assay 2), 7 nM; against S. aureus DNA gyrase [2] (S. aureus gyrase supercoiling IC50 Average, gel-based assay, average of assay 1 and 2), 7 nM; against S. aureus DNA gyrase [2] (S. aureus inhibition (DNA supercoiling IC50), as quoted in point-by-point response) it was 7 nM; at S. aureus DNA gyrase [2] (S. aureus inhibition (DNA supercoiling IC50), as quoted in reviewer report), 7 nM. Also, the IC50 with HUVEC was determined as 25.42 ± 0.01 µM; in the series on HepG2, 9.37 ± 0.07 µM; at hERG potassium channel, 290 nM.

As for `COc1ccc2nccc(CCN3CCC(NCc4ccc(I)cc4)CC3)c2n1` [Compound 6], the IC50 at S. aureus DNA gyrase [2] (read-out: S. aureus gyrase supercoiling IC50 Assay 1, gel-based assay, assay 1) stood at 13 nM; on S. aureus DNA gyrase [2] (read-out: S. aureus gyrase supercoiling IC50 Assay 2, gel-based assay, assay 2), 9 nM; with HUVEC, 19 ± 0.85 µM; in the series with HepG2, 8.47 ± 0.09 µM; on hERG potassium channel (human, FP-based hERG binding assay kit (Invitrogen)), 180 nM.

For the compound `COc1ccc2nccc(CCN3CCC(NCc4ccc(C(N)=O)cc4)CC3)c2n1` [Compound 8], the figures for the IC50 in the series on HUVEC and at hERG potassium channel were > 50 µM and 13400 nM, respectively.

The term MIC denotes the least concentration at which growth counts as inhibited. Higher therefore signals a less susceptible organism. `COc1ccc2nccc(CCN3CCC(NCc4ccc(N(C)C)cc4)CC3)c2n1` [Compound 9]: the MIC with S. aureus (ATCC 29213) was 0.125 µg/mL (≈ 0.298 µM); against MRSA (NCTC12493) it was 0.25 µg/mL (≈ 0.596 µM). Further, the IC50 with HUVEC amounted to 23.85 ± 0.09 µM; in the series with HepG2, 10.03 ± 0.06 µM; against S. aureus DNA gyrase [1], 67 nM; at hERG potassium channel, 2110 nM.

For `CN(C)[C@@H]1C(O)=C(C(N)=O)C(=O)[C@@]2(O)C(O)=C3C(=O)c4c(O)cccc4[C@@](C)(O)[C@H]3C[C@@H]12` [Tetracycline, reference compound], the values for the MIC with S. aureus (ATCC 29213) and with E. coli (ATCC 25922) were 0.5 µg/mL (≈ 1.13 µM) and 1 µg/mL (≈ 2.25 µM), respectively.

The record behind these values is PMC7794245, “Potent DNA gyrase inhibitors bind asymmetrically to their target using symmetrical bifurcated halogen bonds” (Nature Communications, 2021).
